In publication PMC6200635 (ACS infectious diseases, 2018):
Read-outs that look alike come from different tables or passages of the source.

B1: IFN-γ: recombinant human IFN-γ (R&D Systems, 285-IF-100/CF) (protein, UniProt P01579 24-161, looked up)
Interferon gamma: QDPYVKEAENLKKYFNAGHSDVADNGTLFLGILKNWKEESDRKIMQSQIVSFYFKLFKNFKDDQSIQKSVETIKEDMNVKFFNSNKKKRDDFEKLTNYSVTDLNVQRKAIHELIQVMAELSPAAKTGKRKRSQMLFRG

How the values were obtained:
[1] = tested on: T. gondii tachyzoites (ME49-FLUC) in HeLa cells; assay: Luciferase based growth assay, multi-point dose response; type: cell-based; conditions: Toxoplasma gondii, 72 h
[2] = tested on: GFP-LC3 recruitment to the T. gondii parasite-containing vacuole in GFP-LC3 HeLa cells; assay: Image based GFP-LC3 recruitment assay; type: cell-based, Toxoplasma gondii; conditions: IFN-γ 50 U/mL, HeLa cells activated 24 h, 6 h post-infection

| Molecule | EC50 ([1]; read-out: EC50+ IFN-γ) [nM] | EC50 ([1]; read-out: EC50 Naïve) [nM] | GFP-LC3 positive parasite-containing vacuoles [2] [%] |
| --- | --- | --- | --- |
| CCc1nc(N)nc(N)c1-c1ccc(Cl)cc1 [Pyrimethamine] | 200 | 160 | – |
| B1 | – | – | 12.4 |
